From article PMC11726677, “Eradication of Therapy-Resistant Cancer Stem Cells by Novel Telmisartan Derivatives” (Journal of Medicinal Chemistry, 2024)

Tests used:
[1] = test system: A549 cells (ABCC1+); test: SP analysis (DCV, flow cytometry) in A549 cells; assay type: cell-based, human; conditions: A549, 10 μM
From the text: (§1) In recent studies, we described the side population (SP) phenotype as a marker that defines a heterogeneous cellular compartment with stem cell-characteristics in various cancer cell lines derived from solid tumors, such as ovarian cancer, breast cancer, and lung cancer.[26],[27]

[2] = Hepatocyte stability, human; assay type: in vitro ADME; conditions: for half-life at 1 h, 1 µM / hepatocyte CLint at 1 h, 1 µM: human, cryopreserved human hepatocytes; for half-life at 1 h, 1 µM: read-out: hepatocytic stability human t1/2; for hepatocyte CLint at 1 h, 1 µM: after 60 min in HH, read-out: hepatocytic stability human, CLint
Method: (§2) Cryopreserved hepatocytes (human and mouse) were used to analyze the stability of the compounds. Hepatocytes (0.5 × 10^6 cells/mL in Williams E medium supplemented with 2 mM L-glutamine and 25 mM N-2-hydroxyethylpiperazin-Ń-ethanesulfonic acid (HEPES)) were preincubated at 37 °C. […] At the appropriate time points, the reactions were stopped by transferring into acetonitrile. After protein precipitation by centrifugation at 3000 rpm for 20 min at 4 °C, the sample supernatants were analyzed by LC–MS/MS analysis (control compounds were included). The elimination rate constant was determined from the ratio of the ln peak area to time. Half-life (t1/2) and intrinsic clearance (CLint) were calculated using the appropriate formulas.

[3] = test system: DU145-DR cells (ABCB1+); test: SP analysis (DCV, flow cytometry) in DU145-DR cells; assay type: cell-based, human; conditions: 10 μM
From the text: as §1

[4] = Microsomal metabolic stability, mouse; assay type: in vitro ADME; conditions: for metabolic stability Mouse, % of compound remaining: after 30 min in MLM, 1 μM; for half-life at 1 µM: mouse, pooled mouse liver microsomes, pH 7.4, MLM, read-out: metabolic stability Mouse t1/2
Method: (§3) The stability of the compounds was assessed in pooled human and mouse liver microsomes (final protein concentration 0.5 mg/mL). […] At the appropriate time points, the reactions were stopped by transferring into acetonitrile. After protein precipitation, by centrifugation at 3000 rpm for 20 min at 4 °C, the sample supernatants were analyzed using LC–MS/MS analysis (control compounds were included). The elimination rate constant was determined from the ratio of the ln peak area to time. Half-life (t1/2) and intrinsic clearance (CLint) were calculated using the appropriate formulas.

[5] = test system: A2780 V SP cells (ABCB1+); test: SP analysis (DCV, flow cytometry) in A2780 V SP cells; assay type: cell-based, human; conditions: 10 μM
From the text: as §1

[6] = test system: DU145-DR cells; test: Chemosensitizing to docetaxel: metabolic activity of DU145-DR cells (MTT); assay type: cell-based, human; conditions: compound 10 μM + DTX 12.5 nM, 72 h
Method: (§4) The chemosensitizing efficacy was investigated in the ovarian and prostate cancer cell lines using the above-described metabolic activity assay. Paclitaxel (PTX) served as a reference (CTR) in A2780 V SP and IGROV-1 SP cells and docetaxel (DTX) in PC3-DR and D145-DR cells.
(§5) COS-7 (2 × 10^3 cells per well), IGROV-1 SP (2.5 × 10^3 cells per well), A2780 V SP (1.5 × 10^3 cells per well), PC3-DR (4 × 10^3 cells per well), and DU145-DR (3 × 10^3 cells per well) cells were seeded in 96-well plates in triplicates and after 24 h, the compounds were added at the respective concentrations. K562-R and K562 cells (2 × 10^4 cells per well), were treated with the compounds 2 h after seeding. […] A modified MTT colorimetric assay (EZ4U kit, Biomedica) was used to determine the metabolic activity of the tested cells, according to the manufacturer’s instructions. Absorbance was measured and the optical density of the respective FCS-containing medium and of the substrate was subtracted to exclude nonspecific staining. Metabolic activity in the absence of the compounds (CTR, DMSO) was set to 100% as reference.

[7] = test system: K562-R cells; test: Metabolic activity of K562-R cells, compounds alone (modified MTT assay); assay type: cell-based, human; conditions: 10 μM, 72 h, without imatinib; vehicle control = 100%
Method: The potential reduction in cell viability was determined using the modified MTT assay.
First, the compounds (10 μM) were applied alone to evaluate their effects per se.
as §5

[8] = test system: MCF7 cells (ABCG2+); test: SP analysis (DCV, flow cytometry) in MCF7 cells; assay type: cell-based, human; conditions: MCF7, 10 μM
From the text: as §1

[9] = Microsomal metabolic stability, human; assay type: in vitro ADME; conditions: for metabolic stability Human, % of compound remaining: after 30 min in HLM, 1 μM; for half-life at 1 µM: human, pooled human liver microsomes, pH 7.4, HLM, read-out: metabolic stability Human t1/2
Method: as §3

[10] = test system: IGROV-1 SP cells (ABCB1+); test: SP analysis (DCV, flow cytometry) in IGROV-1 SP cells; assay type: cell-based, human; conditions: 10 μM
From the text: as §1

[11] = test system: PC3-DR cells; test: Chemosensitizing to docetaxel: metabolic activity of PC3-DR cells (MTT); assay type: cell-based, human; conditions: compound 10 μM + DTX 12.5 nM, 72 h
Method: as §4, §5

[12] = Hepatocyte stability, mouse; assay type: in vitro ADME; conditions: for half-life at 1 h, 1 µM / hepatocyte CLint at 1 h, 1 µM: mouse, cryopreserved mouse hepatocytes; for half-life at 1 h, 1 µM: read-out: hepatocytic stability mouse t1/2; for hepatocyte CLint at 1 h, 1 µM: after 60 min in MH, read-out: hepatocytic stability mouse, CLint
Method: as §2

[13] = test system: primary human CML patient samples; test: Colony forming cell (CFC) assay, primary CML patient samples; assay type: cell-based; conditions: together with 1 μM of imatinib, once at the beginning of the 14 day assay; compound 10 μM
From the text: Frozen peripheral blood mononuclear cells (PBMC) from TKI naïve CML patients and healthy controls were used for the CFC assay as described previously.[46] Briefly, thawed cells were resuspended a semisolid medium (Enriched MethocCult H4435, Stem Cell Technologies) supplemented with the respective compounds and cultured in small culture dishes for 2 weeks. Colonies were counted using an inverted microscope.

[14] = target: ABCB1 transporter in K562-R cells (Homo sapiens, UniProt P08183); test: Side population (SP) analysis, DCV staining, flow cytometry; conditions: 10 μM
Sequence of ABCB1 transporter in K562-R cells (P08183 whole entry): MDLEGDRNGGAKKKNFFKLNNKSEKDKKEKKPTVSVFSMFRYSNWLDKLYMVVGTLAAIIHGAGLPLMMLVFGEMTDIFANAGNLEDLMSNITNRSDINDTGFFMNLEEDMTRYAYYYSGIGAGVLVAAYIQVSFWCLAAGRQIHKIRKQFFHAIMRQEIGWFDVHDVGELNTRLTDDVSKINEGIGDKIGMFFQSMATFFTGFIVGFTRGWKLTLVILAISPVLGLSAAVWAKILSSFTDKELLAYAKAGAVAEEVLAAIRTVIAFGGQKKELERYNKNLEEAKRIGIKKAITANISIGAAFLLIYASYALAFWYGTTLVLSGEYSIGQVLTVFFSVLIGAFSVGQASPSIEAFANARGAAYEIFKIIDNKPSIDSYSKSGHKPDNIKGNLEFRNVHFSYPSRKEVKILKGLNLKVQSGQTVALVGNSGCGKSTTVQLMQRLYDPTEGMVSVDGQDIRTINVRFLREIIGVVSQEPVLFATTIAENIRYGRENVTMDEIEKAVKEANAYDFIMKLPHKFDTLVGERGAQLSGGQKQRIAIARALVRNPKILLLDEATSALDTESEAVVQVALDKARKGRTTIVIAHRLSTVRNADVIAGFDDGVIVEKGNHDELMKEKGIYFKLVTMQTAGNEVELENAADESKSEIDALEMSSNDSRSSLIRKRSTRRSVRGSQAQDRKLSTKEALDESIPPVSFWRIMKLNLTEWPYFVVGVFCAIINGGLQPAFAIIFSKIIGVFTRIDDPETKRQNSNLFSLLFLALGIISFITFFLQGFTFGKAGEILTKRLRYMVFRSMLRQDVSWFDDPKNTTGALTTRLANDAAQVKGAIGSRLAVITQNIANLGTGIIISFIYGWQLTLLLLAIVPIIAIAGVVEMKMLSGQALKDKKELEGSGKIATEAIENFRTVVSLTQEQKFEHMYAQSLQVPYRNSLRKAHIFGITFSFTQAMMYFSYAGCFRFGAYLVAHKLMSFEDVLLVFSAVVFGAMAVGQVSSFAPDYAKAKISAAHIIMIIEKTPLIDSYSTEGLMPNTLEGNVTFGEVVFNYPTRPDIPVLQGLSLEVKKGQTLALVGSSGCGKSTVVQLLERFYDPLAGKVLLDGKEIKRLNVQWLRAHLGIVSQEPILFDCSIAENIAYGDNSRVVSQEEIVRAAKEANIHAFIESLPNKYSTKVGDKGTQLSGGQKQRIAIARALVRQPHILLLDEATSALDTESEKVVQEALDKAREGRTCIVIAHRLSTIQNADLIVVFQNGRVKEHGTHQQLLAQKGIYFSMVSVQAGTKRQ
Method: SP analyses were performed as previously described[45] on a LSRFortessa flow cytometer (BD Biosciences, Vienna, Austria). Briefly, 1 × 10^6 cells/mL were stained with 10 μM Vybrant DyeCycleTM Violet (DCV; Molecular Probes, Eugene, OR) in the presence or absence of the investigated compounds for 90 min at 37 °C. […] Subsequently, the cells were washed and immediately analyzed using flow cytometry. The FlowJo 9.6 software was used for data analyses (Tree Star Software, Ashland, CA).

[15] = test system: K562-R cells; test: Cellular imatinib accumulation assay (U(H)PLC-SIM-MS); assay type: cell-based, human; conditions: preincubated 1 h with 10 μM compound, then 1 μM imatinib 2 h
Method: After treatment, cells were washed, and the resulting cell pellets were lysed in 200 μL of ice-cold methanol. Lysates were incubated on a tube shaker (Thermomixer C, Eppendorf) for 20 min at 4 °C and 1400 rpm, followed by centrifugation (MicroStar 17R, VWR) at 16000g for 5 min at 4 °C. 180 μL of supernatants were separated from the sediment and dried in a rotary vacuum evaporator (Concentrator plus, Eppendorf) and stored at −80 °C until analysis.
Metabolites were separated using the following gradient: 1% B for 0.2 min, 1% B to 70% B within 0.6 min, 70% B to 90% B within 0.2 min, 90% B for 0.3 min. The UPLC system was coupled to a quadrupole orbitrap mass spectrometer (Exploris 480, Thermo Fischer Scientific) via a HESI electrospray source. […] The spray voltage was set to 3500 V and the ion transfer tube and vaporizer temperatures were set at 350 °C. Sheath gas was used at a flow rate of 60 (arbitrary units (a.u)) and auxiliary gas at a flow rate of 15 (a.u)).
Raw data processing was performed using TraceFinder General Quan 5.0 (Thermo Scientific, San Jose, CA, USA). The ICIS algorithm was used for peak identification and integration with the following parameters Peak detection strategy: Highest peak; Peak threshold type: Area; Threshold: 1; Smoothing: 3; S/N threshold: 3; Tailing Factor: 8. Peaks were manually adjusted when necessary. […]

[16] = test system: PC3-DR cells (ABCB1+); test: SP analysis (DCV, flow cytometry) in PC3-DR cells; assay type: cell-based, human; conditions: 10 μM
From the text: as §1

Structure (SMILES)	effect on SP phenotype [1]	half-life at 1 h, 1 µM ([2]; HH) [min]	hepatocyte CLint at 1 h, 1 µM [2] [µL/min/1e6 cells]	effect on SP phenotype [3]	metabolic stability Mouse, % of compound remaining [4] [%]	half-life at 1 µM [4] [min]	effect on SP phenotype [5]	chemosensitizing to DTX (antimetabolic activity) [6]	metabolic activity of K562-R cells, compound alone [7]	effect on SP phenotype [8]	metabolic stability Human, % of compound remaining [9] [%]	half-life at 1 µM [9] [min]	effect on SP phenotype [10]	chemosensitizing to DTX (antimetabolic activity) [11]	half-life at 1 h, 1 µM ([12]; MH) [min]	hepatocyte CLint at 1 h, 1 µM [12] [µL/min/1e6 cells]	number of colonies (CFC) [13]	effect on SP phenotype / ABCB1 activity [14]	intracellular accumulation of imatinib [15]	effect on SP phenotype [16]	also measured
CCCc1nc2c(C)cc(-c3nc4ccccc4n3C)cc2n1Cc1ccc(-c2ccccc2C(=O)OC)cc1 [7b, Methyl 4′-((1,7′-dimethyl-2′-propyl-1H,3′H-[2,5′-bibenzo[d]imidazole]-3′-yl)methyl)-[1,1′-biphenyl]-2-carboxylate]	eliminated the SP phenotype	18.4	75.2	eliminated the SP phenotype	3	6	eliminated the SP phenotype	produced the same effects as 5c and 6c	inactive	eliminated the SP phenotype	26.3	16.2	eliminated the SP phenotype	only marginally increased the antimetabolic activity of DTX	13.8	101	significantly reduced the number of colonies	completely repressed the SP phenotype	notably restored	eliminated the SP phenotype	
CCCc1nc2c(C)cc(-c3nc4ccccc4n3C)cc2n1Cc1ccc(-c2ccccc2C(N)=O)cc1 [7c, 4′-((1,7′-Dimethyl-2′-propyl-1H,3′H-[2,5′-bibenzo[d]imidazole]-3′-yl)methyl)-[1,1′-biphenyl]-2-carboxamide]	eliminated the SP phenotype	100	13.8	eliminated the SP phenotype	13.3	8.8	eliminated the SP phenotype	most active chemosensitizer	inactive	eliminated the SP phenotype	58.1	45.1	eliminated the SP phenotype	most active chemosensitizer	44.9	30.9	significantly reduced the number of colonies	completely repressed the SP phenotype	notably restored	eliminated the SP phenotype	clearance class ([2]; HH): medium clearance; clearance class ([12]; MH): high clearance
